In US20210198277A1, “AMINE-SUBSTITUTED ARYL OR HETEROARYL COMPOUNDS” (Epizyme, Inc., priority 2016, published 2021):

How the values were obtained:
human EHMT2 913-1193 = biological target: T1, human EHMT2 913-1193 (Homo sapiens, UniProt Q96KQ7); test: EHMT2 enzyme assay on histone peptide substrate (EHMT2 PEP); type: biochemical; settings: Table III; read-out: EHMT2 PEP (IC50 μM)
T1 construct: recombinant purified human EHMT2 913-1193, Viva; purchased Viva
T1 sequence (Q96KQ7 913-1193): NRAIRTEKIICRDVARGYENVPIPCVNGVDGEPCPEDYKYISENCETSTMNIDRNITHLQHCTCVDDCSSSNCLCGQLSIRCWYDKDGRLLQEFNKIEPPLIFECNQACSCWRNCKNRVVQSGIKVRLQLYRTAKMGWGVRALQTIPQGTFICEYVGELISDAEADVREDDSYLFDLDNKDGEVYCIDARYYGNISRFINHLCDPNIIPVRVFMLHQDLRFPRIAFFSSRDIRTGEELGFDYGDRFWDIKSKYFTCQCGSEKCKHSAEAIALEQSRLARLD
Method in brief: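 Compounds were tested as 3-fold dilutions, 10 points from a 50 μM final top (2% DMSO), after 30-min preincubation with 0.031 nM enzyme in Bicine buffer pH 7.5. Transfer of ^3H-methyl from ^3H-SAM to biotinylated histone peptide ran 60 min at room temperature and was detected by streptavidin Flashplate scintillation.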

EHMT1 = biological target: T2, EHMT1 (Homo sapiens, UniProt Q9H9B1); test: EHMT1 enzyme assay on peptide substrate (EHMT1 PEP); type: biochemical; settings: Table III; read-out: EHMT1 PEP (IC50 μM)
T2 sequence (Q9H9B1 1-1298): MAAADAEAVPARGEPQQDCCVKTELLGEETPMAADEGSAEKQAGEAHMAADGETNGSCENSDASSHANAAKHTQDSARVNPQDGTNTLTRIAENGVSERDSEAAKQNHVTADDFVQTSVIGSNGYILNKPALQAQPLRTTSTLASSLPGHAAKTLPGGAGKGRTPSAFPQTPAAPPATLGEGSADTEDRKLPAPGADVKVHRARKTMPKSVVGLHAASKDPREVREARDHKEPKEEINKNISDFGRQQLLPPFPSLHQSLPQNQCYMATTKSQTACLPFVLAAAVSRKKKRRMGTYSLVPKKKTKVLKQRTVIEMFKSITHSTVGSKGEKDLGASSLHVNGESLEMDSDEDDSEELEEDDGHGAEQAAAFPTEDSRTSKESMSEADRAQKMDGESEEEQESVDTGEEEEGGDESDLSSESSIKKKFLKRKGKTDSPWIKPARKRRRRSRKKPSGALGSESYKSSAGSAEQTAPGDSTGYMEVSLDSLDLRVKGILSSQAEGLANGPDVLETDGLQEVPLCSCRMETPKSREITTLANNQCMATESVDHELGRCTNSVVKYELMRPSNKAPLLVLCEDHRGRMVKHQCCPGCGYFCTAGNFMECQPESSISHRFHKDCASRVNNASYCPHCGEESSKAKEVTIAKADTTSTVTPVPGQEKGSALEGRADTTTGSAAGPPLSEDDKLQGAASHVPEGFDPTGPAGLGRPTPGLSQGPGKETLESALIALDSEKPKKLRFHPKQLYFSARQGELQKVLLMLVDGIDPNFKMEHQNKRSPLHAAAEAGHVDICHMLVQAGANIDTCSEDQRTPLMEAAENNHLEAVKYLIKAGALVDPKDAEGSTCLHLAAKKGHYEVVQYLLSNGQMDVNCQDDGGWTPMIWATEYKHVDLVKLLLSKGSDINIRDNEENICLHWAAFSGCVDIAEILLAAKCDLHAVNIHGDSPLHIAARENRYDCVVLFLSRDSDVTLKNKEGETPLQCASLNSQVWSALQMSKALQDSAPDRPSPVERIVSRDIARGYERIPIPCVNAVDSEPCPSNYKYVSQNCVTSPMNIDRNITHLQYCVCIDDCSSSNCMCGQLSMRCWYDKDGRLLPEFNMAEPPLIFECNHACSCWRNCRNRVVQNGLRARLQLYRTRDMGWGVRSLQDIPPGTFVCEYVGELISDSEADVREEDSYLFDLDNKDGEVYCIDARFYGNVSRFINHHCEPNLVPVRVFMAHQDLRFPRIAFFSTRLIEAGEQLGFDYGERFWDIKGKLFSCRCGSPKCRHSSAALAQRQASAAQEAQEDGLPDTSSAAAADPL

## CNc1cc(C)nc(Nc2ccc(OC)c(O[C@H]3C[C@@H](N(C)C)C3)c2)n1 (single isomer, unassigned) [Compound 317, N^2-(3-((1s,3s)-3-(dimethylamino)cyclobutoxy)-4-methoxyphenyl)-N^4,6-dimethylpyrimidine-2,4-diamine]
Human EHMT2 913-1193
  IC50: 1 to 10 µM
EHMT1
  IC50: > 10 µM

## CNc1ccnc(Nc2ccc(OC)c(OC[C@@H]3CN(C)C[C@H]3C)c2)n1 (single isomer, unassigned) [Compound 438]
Human EHMT2 913-1193
  IC50: > 10 µM
EHMT1
  IC50: > 10 µM

## CNc1ccnc(Nc2ccc(OC)c(OC[C@H]3CN(C)C[C@@H]3C)c2)n1 (single isomer, unassigned) [Compound 439]
Human EHMT2 913-1193
  IC50: 0.1 to 1 µM
EHMT1
  IC50: 0.1 to 1 µM

## CNc1ccnc(Nc2cccc(COCCN3CCCC3)n2)c1 [Compound 267, N^4-methyl-N^2-(6-((2-(pyrrolidin-1-yl)ethoxy)methyl)pyridin-2-yl)pyridine-2,4-diamine]
Human EHMT2 913-1193
  IC50: > 10 µM
EHMT1
  IC50: > 10 µM

## CNc1cc(Nc2cccc(COCCN3CCCC3)n2)ccn1 [Compound 268, N^2-methyl-N^4-(6-((2-(pyrrolidin-1-yl)ethoxy)methyl)pyridin-2-yl)pyridine-2,4-diamine]
Human EHMT2 913-1193
  IC50: > 10 µM
EHMT1
  IC50: > 10 µM

## CNc1nc(C2CCN(C)CC2)c2cc(OC)c(OCCCN3CCCC3)cc2n1 [Compound 270]
Human EHMT2 913-1193
  IC50: < 0.1 µM
EHMT1
  IC50: < 0.1 µM

## CNc1ccnc(Nc2ccc(OC)c(OCCCN3CC[C@H](F)C3)c2)n1 [Compound 271]
Human EHMT2 913-1193
  IC50: 1 to 10 µM
EHMT1
  IC50: 0.1 to 1 µM

## CNc1cc(Nc2ccc(OC)c(OCCCN3CCCC3)c2)ncc1F [Compound 272, 5-fluoro-N^2-(4-methoxy-3-(3-(pyrrolidin-1-yl)propoxy)phenyl)-N^4-methylpyridine-2,4-diamine]
Human EHMT2 913-1193
  IC50: 0.1 to 1 µM
EHMT1
  IC50: 1 to 10 µM

## CNc1cc(Nc2ccc(OC)c(OCCCN3CCCC3)c2)cc(C(F)(F)F)n1 [Compound 273]
Human EHMT2 913-1193
  IC50: > 10 µM
EHMT1
  IC50: > 10 µM

## CNc1ccnc(Nc2cccc(N3CCC(N)C3=O)c2)n1 (stereo not drawn) [Compound 274]
Human EHMT2 913-1193
  IC50: 1 to 10 µM
EHMT1
  IC50: 1 to 10 µM

## CNc1ccnc(Nc2cccc(N3CCC(N(C)C)C3=O)c2)n1 (stereo not drawn) [Compound 275]
Human EHMT2 913-1193
  IC50: > 10 µM
EHMT1
  IC50: > 10 µM

## CNc1ccnc(Nc2cccc(OCC(F)CN3CCCC3)c2)n1 (stereo not drawn) [Compound 276, N^2-(3-(2-fluoro-3-(pyrrolidin-1-yl)propoxy)phenyl)-N^4-methylpyrimidine-2,4-diamine]
Human EHMT2 913-1193
  IC50: > 10 µM
EHMT1
  IC50: 1 to 10 µM

## CNc1ccnc(Nc2cccc(OCC(F)(F)CN3CCCC3)c2)n1 [Compound 277, N^2-(3-(2,2-difluoro-3-(pyrrolidin-1-yl)propoxy)phenyl)-N^4-methylpyrimidine-2,4-diamine]
Human EHMT2 913-1193
  IC50: > 10 µM
EHMT1
  IC50: > 10 µM

## COc1ccc(Nc2nccc(NCC3CC(C)(C)NC(C)(C)C3)n2)cc1OCCCN1CCCC1 [Compound 278]
Human EHMT2 913-1193
  IC50: < 0.1 µM
EHMT1
  IC50: < 0.1 µM

## CNc1ccnc(Nc2cccc(C(C)OCCN3CCCC3)c2)n1 (stereo not drawn) [Compound 279, N^4-methyl-N^2-(3-(1-(2-(pyrrolidin-1-yl)ethoxy)ethyl)phenyl) pyrimidine-2,4-diamine]
Human EHMT2 913-1193
  IC50: > 10 µM
EHMT1
  IC50: > 10 µM

## CCN(CC)CCCOc1cc(Nc2nccc(NC)n2)ccc1OC [Compound 280, N^2-(3-(3-(diethylamino)propoxy)-4-methoxyphenyl)-N^4-methylpyrimidine-2,4-diamine]
Human EHMT2 913-1193
  IC50: 1 to 10 µM
EHMT1
  IC50: 1 to 10 µM

## CNc1ccnc(Nc2ccc(OC)c(OCCCN3CCC(S(C)(=O)=O)C3)c2)n1 (stereo not drawn) [Compound 282]
Human EHMT2 913-1193
  IC50: > 10 µM
EHMT1
  IC50: > 10 µM

## CNc1ccnc(Nc2ccc(OC)c(OCCCN3CCC(OC)C3)c2)n1 (stereo not drawn) [Compound 283, N^2-(4-methoxy-3-(3-(3-methoxypyrrolidin-1-yl)propoxy)phenyl)-N^4-methylpyrimidine-2,4-diamine]
Human EHMT2 913-1193
  IC50: < 0.1 µM
EHMT1
  IC50: < 0.1 µM

## CNc1ccnc(Nc2ccc(OC)c(OCCCN3CCC4(COC4)C3)c2)n1 [Compound 284]
Human EHMT2 913-1193
  IC50: > 10 µM
EHMT1
  IC50: > 10 µM

## CNc1ccnc(Nc2ccc(OC)c(OCCCN3CCC(C(F)(F)F)C3)c2)n1 (stereo not drawn) [Compound 285, N^2-(4-methoxy-3-(3-(3-(trifluoromethyl)pyrrolidin-1-yl)propoxy)phenyl)-N^4-methylpyrimidine-2,4-diamine]
Human EHMT2 913-1193
  IC50: > 10 µM
EHMT1
  IC50: > 10 µM

## CNc1ccnc(Nc2ccc(OC)c(OCCCN3CCC(O)C3)c2)n1 (stereo not drawn) [Compound 286, 1-(3-(2-methoxy-5-((4-(methylamino)pyrimidin-2-yl)amino)phenoxy)propyl)pyrrolidin-3-ol]
Human EHMT2 913-1193
  IC50: < 0.1 µM
EHMT1
  IC50: 0.1 to 1 µM

## CNc1ccnc(Nc2ccc(OC)c(OCCCN3CCC(C#N)C3)c2)n1 (stereo not drawn) [Compound 287, 1-(3-(2-methoxy-5-((4-(methylamino)pyrimidin-2-yl)amino)phenoxy)propyl)pyrrolidine-3-carbonitrile]
Human EHMT2 913-1193
  IC50: > 10 µM
EHMT1
  IC50: > 10 µM

## CNc1ccnc(Nc2ccc(OC)c(OCCC3CCCN3C)c2)n1 (stereo not drawn) [Compound 288, N^2-(4-methoxy-3-(2-(1-methylpyrrolidin-2-yl)ethoxy)phenyl)-N^4-methylpyrimidine-2,4-diamine]
Human EHMT2 913-1193
  IC50: 0.1 to 1 µM
EHMT1
  IC50: 0.1 to 1 µM

## CNc1ccnc(Nc2ccc(OC)c(OCC3CCCN3C)c2)n1 (stereo not drawn) [Compound 289, N^2-(4-methoxy-3-((1-methylpyrrolidin-2-yl)methoxy)phenyl)-N^4-methylpyrimidine-2,4-diamine]
Human EHMT2 913-1193
  IC50: 0.1 to 1 µM
EHMT1
  IC50: < 0.1 µM

## CNc1ccnc(Nc2ccc(OC)c(OCCCN3CCCC3C)c2)n1 (stereo not drawn) [Compound 290, N^2-(4-methoxy-3-(3-(2-methylpyrrolidin-1-yl)propoxy)phenyl)-N^4-methylpyrimidine-2,4-diamine]
Human EHMT2 913-1193
  IC50: 0.1 to 1 µM
EHMT1
  IC50: 0.1 to 1 µM

## CCNC(=O)c1cc(Nc2nccc(NC)n2)ccn1 [Compound 291, N-ethyl-4-((4-(methylamino)pyrimidin-2-yl)amino)picolinamide]
Human EHMT2 913-1193
  IC50: > 10 µM
EHMT1
  IC50: > 10 µM

## CNc1ccnc(Nc2ccc(OC)c(OCCCN3CCC(C)C3)c2)n1 (stereo not drawn) [Compound 293, N^2-(4-methoxy-3-(3-(3-methylpyrrolidin-1-yl)propoxy)phenyl)-N^4-methylpyrimidine-2,4-diamine]
Human EHMT2 913-1193
  IC50: 1 to 10 µM
EHMT1
  IC50: 0.1 to 1 µM

## CNc1ccnc(Nc2cccc3oc(CCN(C)C)nc23)n1 [Compound 295]
Human EHMT2 913-1193
  IC50: > 10 µM
EHMT1
  IC50: > 10 µM

## CNc1ccnc(Nc2cccc(N3CC(N)CC3=O)c2)n1 (stereo not drawn) [Compound 296]
Human EHMT2 913-1193
  IC50: > 10 µM
EHMT1
  IC50: > 10 µM

## CNc1ccnc(Nc2cccc(N3CCC(N)C3)c2)n1 (stereo not drawn) [Compound 297]
Human EHMT2 913-1193
  IC50: 1 to 10 µM
EHMT1
  IC50: > 10 µM

## CNc1ccnc(Nc2ccc(OC)c(OCCCN3CC4CC4C3)c2)n1 (stereo not drawn) [Compound 298, N^2-(3-(3-(3-azabicyclo[3.1.0]hexan-3-yl)propoxy)-4-methoxyphenyl)-N^4-methylpyrimidine-2,4-diamine]
Human EHMT2 913-1193
  IC50: < 0.1 µM
EHMT1
  IC50: < 0.1 µM

## CNc1ccnc(Nc2ccc(OC)c(OC[C@H](O)CN3CCCC3)c2)n1 [Compound 299, (R)-1-(2-methoxy-5-((4-(methylamino)pyrimidin-2-yl)amino)phenoxy)-3-(pyrrolidin-1-yl)propan-2-ol]
Human EHMT2 913-1193
  IC50: < 0.1 µM
EHMT1
  IC50: < 0.1 µM

## CNc1ccnc(Nc2ccc(OC)c(OC[C@@H](O)CN3CCCC3)c2)n1 [Compound 300, (S)-1-(2-methoxy-5-((4-(methylamino)pyrimidin-2-yl)amino)phenoxy)-3-(pyrrolidin-1-yl)propan-2-ol]
Human EHMT2 913-1193
  IC50: 0.1 to 1 µM
EHMT1
  IC50: 0.1 to 1 µM
